# Measured values reported in ChEMBL document CHEMBL5528056, “BAY-9835: Discovery of the First Orally Bioavailable ADAMTS7 Inhibitor” (J Med Chem, 2024).
# Experiments:
# [1] = Genotoxicity in Salmonella typhimurium by Ames […] test; type: toxicity; conditions: salmonella enterica subsp. enterica serovar typhimurium
# [2] = Selectivity ratio of IC50 for C-terminal 10His-tagged recombinant human MMP-14 (21 to 284 residues) expressed in Escherichia coli using McaKPLGL-Dpa-AR-NH2 as substrate to IC50 for ADAMTS7 (unknown origin)
# [3] = Dose normalized AUC in C57bl6 mouse at 1 mg/kg, po measured for >24 hrs by HPLC-MS/MS analysis; type: ADME, organism-based; conditions: in vivo
# [4] = Selectivity ratio of IC50 for ADAMTS5 (unknown origin) to IC50 for ADAMTS7 (unknown origin)
# [5] = target: Voltage-dependent L-type calcium channel subunit alpha-1C (Homo sapiens, UniProt Q13936); test: Inhibition of hCaV1.2 upto 10 uM by voltage clamp method; type: toxicity
# [6] = Dose normalized AUC in C57bl6 mouse at 0.3 mg/kg, iv measured for >24 hrs by HPLC-MS/MS analysis; type: ADME, organism-based; conditions: in vivo
# [7] = Dose normalized AUC in Wistar rat at 0.3 mg/kg, iv measured for >24 hrs by HPLC-MS/MS analysis; type: ADME, organism-based; conditions: in vivo
# [8] = Selectivity ratio of IC50 for ADAM17 (unknown origin) to IC50 for ADAMTS7 (unknown origin)
# [9] = Fraction unbound in rat plasma; type: ADME, cell-free
# [10] = Dose normalized AUC in Beagle dog at 1 mg/kg, po measured for >24 hrs by HPLC-MS/MS analysis; type: ADME, organism-based, Canis lupus familiaris; conditions: in vivo
# [11] = target: A disintegrin and metalloproteinase with thrombospondin motifs 7 (Rattus norvegicus, UniProt Q1EHB3); test: Inhibition of recombinant rat ADAMTS7 using HiLyteFluor-488 DELSSMVLELRGLRT-K(QXL520)-E-NH2 as substrate incubated for 120 mins by FRET assay
# [12] = Selectivity ratio of IC50 for MMP15 (unknown origin) to IC50 for ADAMTS7 (unknown origin)
# [13] = Oral bioavailability in C57bl6 mouse at 1 mg/kg measured for >24 hrs by HPLC-MS/MS analysis; type: ADME, organism-based; conditions: in vivo
# Cytochrome P450 1A2 = target: T1, Cytochrome P450 1A2 (Homo sapiens, UniProt P05177); test: Inhibition of CYP1A2 in human liver microsomes using phenacetin as substrate upto 20 uM by LC-MS/MS analysis; type: ADME, Microsome
# T1 sequence (P05177 whole entry): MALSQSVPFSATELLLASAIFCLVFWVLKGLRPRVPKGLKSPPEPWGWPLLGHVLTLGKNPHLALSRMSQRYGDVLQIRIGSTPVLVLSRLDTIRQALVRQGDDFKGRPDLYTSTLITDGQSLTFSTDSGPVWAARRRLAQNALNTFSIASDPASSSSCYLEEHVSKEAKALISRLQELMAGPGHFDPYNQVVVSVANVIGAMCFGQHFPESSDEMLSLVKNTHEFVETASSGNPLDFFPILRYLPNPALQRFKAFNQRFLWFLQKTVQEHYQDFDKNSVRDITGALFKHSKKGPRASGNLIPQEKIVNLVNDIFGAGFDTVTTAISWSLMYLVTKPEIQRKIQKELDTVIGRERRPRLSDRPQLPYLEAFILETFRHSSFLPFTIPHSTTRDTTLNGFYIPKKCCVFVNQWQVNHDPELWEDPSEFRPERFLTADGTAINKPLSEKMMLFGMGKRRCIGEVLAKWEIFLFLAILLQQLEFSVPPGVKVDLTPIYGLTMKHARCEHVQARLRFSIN
# [14] = Selectivity ratio of IC50 for C-terminal 6His-tagged recombinant human ADAM8 (1 to 497 residues) using Dabcyl-SSNQLQRR-Glu(EDANS)-NH2 as substrate to IC50 for ADAMTS7 (unknown origin)
# [15] = Clearance in Wistar rat at 0.3 mg/kg, iv measured for >24 hrs by HPLC-MS/MS analysis; type: ADME, organism-based; conditions: in vivo
# [16] = Stability in human plasma measured for 4 hrs by HPLC analysis; type: ADME, cell-free
# [17] = Selectivity ratio of IC50 for ADAMTS12 (unknown origin) to IC50 for ADAMTS7 (unknown origin)
# [18] = Oral bioavailability in Beagle dog at 1 mg/kg measured for >24 hrs by HPLC-MS/MS analysis; type: ADME, organism-based, Canis lupus familiaris; conditions: in vivo
# [19] = target: A disintegrin and metalloproteinase with thrombospondin motifs 7 (Mus musculus, UniProt Q68SA9); test: Inhibition of recombinant mouse ADAMTS7 using HiLyteFluor-488 DELSSMVLELRGLRT-K(QXL520)-E-NH2 as substrate incubated for 120 mins by FRET assay
# [20] = Half life in Wistar rat at 1 mg/kg, po measured for >24 hrs by HPLC-MS/MS analysis; type: ADME, organism-based; conditions: in vivo
# Cytochrome P450 3A4 = Cytochrome P450 3A4 (Homo sapiens, UniProt P08684); test: Inhibition of CYP3A4 in human liver microsomes using midazolam as substrate upto 20 uM by LC-MS/MS analysis; type: ADME, Microsome
# [21] = Half life in Beagle dog at 1 mg/kg, po measured for >24 hrs by HPLC-MS/MS analysis; type: ADME, organism-based, Canis lupus familiaris; conditions: in vivo
# [22] = Fraction unbound in human plasma; type: ADME, cell-free
# [23] = target: Sodium channel protein type 5 subunit alpha (Homo sapiens, UniProt Q14524); test: Inhibition of hNaV1.5 upto 10 uM by voltage clamp method; type: toxicity
# Cytochrome P450 2C8 = target: T2, Cytochrome P450 2C8 (Homo sapiens, UniProt P10632); test: Inhibition of CYP2C8 in human liver microsomes using diclofenac as substrate upto 20 uM by LC-MS/MS analysis; type: ADME, Microsome
# T2 sequence (P10632 whole entry): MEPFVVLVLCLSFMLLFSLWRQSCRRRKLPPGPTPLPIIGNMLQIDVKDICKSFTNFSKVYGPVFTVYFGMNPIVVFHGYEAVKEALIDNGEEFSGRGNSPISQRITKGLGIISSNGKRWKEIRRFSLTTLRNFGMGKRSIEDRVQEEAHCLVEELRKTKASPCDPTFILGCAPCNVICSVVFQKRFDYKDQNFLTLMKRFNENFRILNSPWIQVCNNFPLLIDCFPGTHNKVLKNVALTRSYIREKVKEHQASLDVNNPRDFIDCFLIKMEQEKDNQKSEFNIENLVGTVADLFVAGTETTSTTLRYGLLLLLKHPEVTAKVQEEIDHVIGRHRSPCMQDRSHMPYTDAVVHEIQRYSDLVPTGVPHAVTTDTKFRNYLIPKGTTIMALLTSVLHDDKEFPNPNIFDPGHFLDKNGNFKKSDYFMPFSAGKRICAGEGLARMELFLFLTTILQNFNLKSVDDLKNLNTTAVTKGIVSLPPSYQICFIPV
# [24] = Dose normalized AUC in Wistar rat at 1 mg/kg, po measured for >24 hrs by HPLC-MS/MS analysis; type: ADME, organism-based; conditions: in vivo
# [25] = Half life in Wistar rat at 0.3 mg/kg, iv measured for >24 hrs by HPLC-MS/MS analysis; type: ADME, organism-based; conditions: in vivo
# [26] = Volume of distribution at steady state in C57bl6 mouse at 0.3 mg/kg, iv measured for >24 hrs by HPLC-MS/MS analysis; type: ADME, organism-based; conditions: in vivo
# [27] = Half life in Beagle dog at 0.3 mg/kg, iv measured for >24 hrs by HPLC-MS/MS analysis; type: ADME, organism-based, Canis lupus familiaris; conditions: in vivo
# Cytochrome P450 3A4, sequence (P08684 whole entry): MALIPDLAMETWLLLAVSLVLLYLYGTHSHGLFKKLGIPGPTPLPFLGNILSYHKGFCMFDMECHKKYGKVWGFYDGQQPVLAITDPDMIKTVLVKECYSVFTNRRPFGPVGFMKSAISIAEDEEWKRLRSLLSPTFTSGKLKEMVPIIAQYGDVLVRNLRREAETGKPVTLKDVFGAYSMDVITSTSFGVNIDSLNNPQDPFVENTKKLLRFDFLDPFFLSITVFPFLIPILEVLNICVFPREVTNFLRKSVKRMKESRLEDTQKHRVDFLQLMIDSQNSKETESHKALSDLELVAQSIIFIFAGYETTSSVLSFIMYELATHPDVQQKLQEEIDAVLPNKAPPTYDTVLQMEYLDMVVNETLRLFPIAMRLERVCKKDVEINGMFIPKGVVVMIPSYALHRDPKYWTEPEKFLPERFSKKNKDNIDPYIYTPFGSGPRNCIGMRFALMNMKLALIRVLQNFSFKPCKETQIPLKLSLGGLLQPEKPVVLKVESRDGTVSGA
# Sodium channel protein type 5 subunit alpha, sequence (Q14524 whole entry): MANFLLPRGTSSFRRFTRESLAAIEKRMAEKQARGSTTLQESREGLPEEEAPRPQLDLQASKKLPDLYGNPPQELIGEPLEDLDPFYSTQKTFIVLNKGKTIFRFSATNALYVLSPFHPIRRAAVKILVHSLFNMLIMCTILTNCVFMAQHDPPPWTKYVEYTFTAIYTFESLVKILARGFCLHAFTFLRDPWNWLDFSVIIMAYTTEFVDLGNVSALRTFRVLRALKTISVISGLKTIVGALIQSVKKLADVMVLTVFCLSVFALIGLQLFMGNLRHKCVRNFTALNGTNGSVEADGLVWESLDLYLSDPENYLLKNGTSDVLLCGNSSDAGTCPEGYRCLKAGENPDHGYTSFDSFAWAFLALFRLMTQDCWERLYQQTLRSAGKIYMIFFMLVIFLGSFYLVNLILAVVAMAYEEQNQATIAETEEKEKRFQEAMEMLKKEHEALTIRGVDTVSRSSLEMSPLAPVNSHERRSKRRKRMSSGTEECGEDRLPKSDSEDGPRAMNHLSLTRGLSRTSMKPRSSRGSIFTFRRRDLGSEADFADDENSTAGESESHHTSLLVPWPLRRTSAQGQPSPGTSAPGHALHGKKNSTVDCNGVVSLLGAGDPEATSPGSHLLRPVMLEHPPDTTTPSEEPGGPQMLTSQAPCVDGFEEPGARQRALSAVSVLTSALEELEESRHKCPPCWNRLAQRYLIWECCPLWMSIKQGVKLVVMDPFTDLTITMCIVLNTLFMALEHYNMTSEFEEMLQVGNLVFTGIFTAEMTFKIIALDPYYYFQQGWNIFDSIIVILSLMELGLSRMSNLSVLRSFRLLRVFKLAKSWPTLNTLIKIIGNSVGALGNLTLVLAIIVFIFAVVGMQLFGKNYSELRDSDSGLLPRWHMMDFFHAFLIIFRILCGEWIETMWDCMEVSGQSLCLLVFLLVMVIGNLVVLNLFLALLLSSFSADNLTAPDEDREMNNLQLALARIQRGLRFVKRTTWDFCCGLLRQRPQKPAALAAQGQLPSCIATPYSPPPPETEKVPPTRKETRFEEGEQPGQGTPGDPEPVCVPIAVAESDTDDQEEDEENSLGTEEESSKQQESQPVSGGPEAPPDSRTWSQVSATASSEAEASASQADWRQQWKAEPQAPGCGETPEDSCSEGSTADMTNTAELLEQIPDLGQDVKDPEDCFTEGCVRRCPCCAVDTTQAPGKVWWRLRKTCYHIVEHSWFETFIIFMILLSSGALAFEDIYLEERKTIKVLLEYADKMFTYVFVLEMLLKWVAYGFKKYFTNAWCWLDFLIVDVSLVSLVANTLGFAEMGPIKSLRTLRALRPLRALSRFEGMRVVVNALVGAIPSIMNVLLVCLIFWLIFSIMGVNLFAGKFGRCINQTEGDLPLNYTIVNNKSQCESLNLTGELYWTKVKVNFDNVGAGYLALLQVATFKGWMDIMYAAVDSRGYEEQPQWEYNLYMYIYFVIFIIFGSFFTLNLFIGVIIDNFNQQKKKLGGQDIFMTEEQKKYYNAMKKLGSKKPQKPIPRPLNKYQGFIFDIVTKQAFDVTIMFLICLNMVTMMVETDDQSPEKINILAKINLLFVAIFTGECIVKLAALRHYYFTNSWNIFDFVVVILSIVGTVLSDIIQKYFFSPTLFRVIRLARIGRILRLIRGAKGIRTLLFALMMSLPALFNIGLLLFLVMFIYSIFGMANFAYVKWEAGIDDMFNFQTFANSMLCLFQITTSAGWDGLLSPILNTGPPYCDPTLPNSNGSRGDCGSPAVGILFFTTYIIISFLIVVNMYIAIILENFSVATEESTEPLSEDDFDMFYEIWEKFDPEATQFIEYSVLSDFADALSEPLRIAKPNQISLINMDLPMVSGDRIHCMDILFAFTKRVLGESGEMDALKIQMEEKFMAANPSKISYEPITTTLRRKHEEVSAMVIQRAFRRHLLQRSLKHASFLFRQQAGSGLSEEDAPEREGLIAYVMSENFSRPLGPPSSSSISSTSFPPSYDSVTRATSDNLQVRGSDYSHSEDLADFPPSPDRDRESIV
# A disintegrin and metalloproteinase with thrombospondin motifs 7 (Rattus norvegicus, UniProt Q1EHB3), sequence (Q1EHB3 whole entry): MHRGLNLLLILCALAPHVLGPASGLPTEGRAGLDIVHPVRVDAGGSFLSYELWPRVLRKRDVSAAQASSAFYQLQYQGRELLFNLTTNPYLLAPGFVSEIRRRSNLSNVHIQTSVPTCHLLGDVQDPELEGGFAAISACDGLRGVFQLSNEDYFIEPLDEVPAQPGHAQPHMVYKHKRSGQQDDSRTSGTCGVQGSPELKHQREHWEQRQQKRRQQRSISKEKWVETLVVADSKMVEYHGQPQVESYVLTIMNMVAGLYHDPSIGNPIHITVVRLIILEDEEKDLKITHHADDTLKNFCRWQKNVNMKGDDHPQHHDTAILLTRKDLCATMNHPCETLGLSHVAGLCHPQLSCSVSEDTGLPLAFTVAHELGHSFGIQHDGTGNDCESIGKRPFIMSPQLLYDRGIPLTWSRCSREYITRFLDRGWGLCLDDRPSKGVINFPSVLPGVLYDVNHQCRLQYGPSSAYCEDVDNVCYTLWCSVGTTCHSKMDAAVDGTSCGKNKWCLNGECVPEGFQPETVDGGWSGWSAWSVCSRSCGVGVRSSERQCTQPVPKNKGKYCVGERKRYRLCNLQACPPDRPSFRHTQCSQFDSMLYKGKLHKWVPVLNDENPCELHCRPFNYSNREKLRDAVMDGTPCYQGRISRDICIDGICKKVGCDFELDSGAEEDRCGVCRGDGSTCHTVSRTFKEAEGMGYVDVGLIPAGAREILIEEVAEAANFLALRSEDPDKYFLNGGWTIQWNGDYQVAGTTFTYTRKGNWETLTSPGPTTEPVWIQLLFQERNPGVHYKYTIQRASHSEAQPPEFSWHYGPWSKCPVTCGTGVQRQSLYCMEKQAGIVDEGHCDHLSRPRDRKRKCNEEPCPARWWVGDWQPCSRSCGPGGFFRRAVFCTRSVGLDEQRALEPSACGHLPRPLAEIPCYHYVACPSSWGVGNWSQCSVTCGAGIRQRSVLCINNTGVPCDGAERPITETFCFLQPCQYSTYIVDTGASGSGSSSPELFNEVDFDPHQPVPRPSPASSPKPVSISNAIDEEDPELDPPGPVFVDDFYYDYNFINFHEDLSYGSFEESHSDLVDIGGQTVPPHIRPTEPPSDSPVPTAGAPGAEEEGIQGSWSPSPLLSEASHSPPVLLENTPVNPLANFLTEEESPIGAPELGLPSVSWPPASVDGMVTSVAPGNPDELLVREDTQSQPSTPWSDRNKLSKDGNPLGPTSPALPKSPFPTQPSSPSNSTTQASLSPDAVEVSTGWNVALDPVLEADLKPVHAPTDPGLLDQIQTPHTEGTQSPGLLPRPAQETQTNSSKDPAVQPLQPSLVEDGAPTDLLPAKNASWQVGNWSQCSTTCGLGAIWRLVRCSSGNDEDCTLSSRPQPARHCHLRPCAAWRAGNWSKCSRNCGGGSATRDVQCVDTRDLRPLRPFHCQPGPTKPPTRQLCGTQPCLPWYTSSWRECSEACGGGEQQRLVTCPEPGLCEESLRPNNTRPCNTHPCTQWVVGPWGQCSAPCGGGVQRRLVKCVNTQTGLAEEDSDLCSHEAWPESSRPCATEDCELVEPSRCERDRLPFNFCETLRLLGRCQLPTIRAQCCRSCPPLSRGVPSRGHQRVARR
smiles,measurement,setting,value
Cn1nccc1[C@]1(CNC(=O)c2ccc(F)c(F)c2-c2ccc(C(F)(F)F)cc2)NC(=O)NC1=O,Activity,[1],Non-Toxic
same,Ratio IC50,[2],> 16700
same,AUC/dose,[3],2 kg·h/L
same,Ratio IC50,[4],1650
same,inhibition (INH),[5],Not Active
same,AUC/dose,[6],1.15 kg·h/L
same,AUC/dose,[7],3.1 kg·h/L
same,Ratio IC50,[8],962
same,Fu,[9],5%
same,AUC/dose,[10],68 kg·h/L
same,IC50,[11],27 nM
same,Ratio IC50,[12],13100
same,bioavailability,[13],100%
same,inhibition (INH),Cytochrome P450 1A2,Not Active
same,Ratio IC50,[14],375
same,CL,[15],9.17 mL/min/kg
same,Stability,[16],Stable
same,Ratio IC50,[17],5
same,F,[18],77%
same,IC50,[19],8 nM
same,t1/2,[20],3.7 h
same,inhibition (INH),Cytochrome P450 3A4,Not Active
same,t1/2,[21],25 h
same,Fu,[22],15%
same,inhibition (INH),[23],Not Active
same,inhibition (INH),Cytochrome P450 2C8,Not Active
same,AUC/dose,[24],3 kg·h/L
same,t1/2,[25],3.6 h
same,Vdss,[26],1.6 L/kg
same,t1/2,[27],22 h
